Each block holds one molecule with its values, some of them ahead of it. Calls of active or inactive are those of the source. The rule behind the calls is not given here.
Experiments:
[1] = test system: PBMC; experiment: Immunostimulatory activity in human PBMC assessed as increase in IL-6 release at 10 uM after 24 hrs by ELISA; format: functional
[2] = biological target: Toll-like receptor 4 (Homo sapiens) (UniProt O00206); experiment: Agonist activity at human TLR4 expressed in HEK-blue cells coexpressing MD2 at 0.99 10^-5M by SEAP reporter gene assay; format: cell-based
[3] = biological target: Toll-like receptor 4 (Homo sapiens) (UniProt O00206); experiment: Agonist activity at human TLR4 expressed in HEK-blue cells coexpressing MD2 at 1.15 10^-5M by SEAP reporter gene assay; format: cell-based
[4] = biological target: Toll-like receptor 4 (Homo sapiens) (UniProt O00206); experiment: Agonist activity at human TLR4 expressed in HEK-blue cells coexpressing MD2 at 1.11 10^-5M by SEAP reporter gene assay; format: cell-based
[5] = biological target: Toll-like receptor 4 (Homo sapiens) (UniProt O00206); experiment: Agonist activity at human TLR4 expressed in HEK-blue cells coexpressing MD2 at 1.11 10^-5M by SEAP reporter gene assay relative to MPLA; format: cell-based
[6] = biological target: Toll-like receptor 4 (Homo sapiens) (UniProt O00206); experiment: Agonist activity at human TLR4 expressed in HEK-blue cells coexpressing MD2 at 1.06 10^-5M by SEAP reporter gene assay relative to MPLA; format: cell-based
[7] = biological target: Toll-like receptor 4 (Homo sapiens) (UniProt O00206); experiment: Agonist activity at human TLR4 expressed in HEK-blue cells coexpressing MD2 at 1.07 10^-5M by SEAP reporter gene assay; format: cell-based
[8] = biological target: Toll-like receptor 4 (Homo sapiens) (UniProt O00206); experiment: Agonist activity at human TLR4 expressed in HEK-blue cells coexpressing MD2 at 1.07 10^-5M by SEAP reporter gene assay relative to MPLA; format: cell-based
[9] = biological target: Toll-like receptor 4 (Homo sapiens) (UniProt O00206); experiment: Agonist activity at human TLR4 expressed in HEK-blue cells coexpressing MD2 at 500 ng/ml by SEAP reporter gene assay relative to MPLA; format: cell-based

Sequence of Toll-like receptor 4 (Homo sapiens) (O00206 whole entry): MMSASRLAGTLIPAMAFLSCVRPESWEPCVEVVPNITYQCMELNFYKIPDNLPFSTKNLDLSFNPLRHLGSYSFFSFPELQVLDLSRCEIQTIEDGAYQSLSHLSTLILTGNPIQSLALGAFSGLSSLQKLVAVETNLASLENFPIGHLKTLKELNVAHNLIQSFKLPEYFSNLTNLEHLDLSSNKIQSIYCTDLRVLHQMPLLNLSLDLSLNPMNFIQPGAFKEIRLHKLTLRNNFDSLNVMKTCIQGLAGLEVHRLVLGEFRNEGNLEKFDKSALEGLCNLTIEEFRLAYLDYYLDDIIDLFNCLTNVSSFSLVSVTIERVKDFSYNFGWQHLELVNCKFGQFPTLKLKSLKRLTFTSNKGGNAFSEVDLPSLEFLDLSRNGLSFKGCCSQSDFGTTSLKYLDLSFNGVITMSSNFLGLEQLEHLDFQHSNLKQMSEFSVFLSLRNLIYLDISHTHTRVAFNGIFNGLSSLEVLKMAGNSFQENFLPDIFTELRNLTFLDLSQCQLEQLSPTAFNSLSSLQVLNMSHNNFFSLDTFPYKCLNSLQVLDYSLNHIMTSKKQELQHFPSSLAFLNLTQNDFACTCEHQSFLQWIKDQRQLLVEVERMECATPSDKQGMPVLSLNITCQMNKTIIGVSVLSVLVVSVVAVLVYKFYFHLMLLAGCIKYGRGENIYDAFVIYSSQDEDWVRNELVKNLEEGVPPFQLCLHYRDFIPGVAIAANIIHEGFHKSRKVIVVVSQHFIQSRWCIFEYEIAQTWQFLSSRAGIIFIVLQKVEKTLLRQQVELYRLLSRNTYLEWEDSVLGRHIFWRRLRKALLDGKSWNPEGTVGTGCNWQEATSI

Structure (SMILES): O=C(CCN1C(=O)C2C3c4ccccc4C(c4ccccc43)C2C1=O)NC1CCCCCC1 (stereo not drawn)
- Activity [1]: 7.3 pg/mL

Structure (SMILES): O=C(CCN1C(=O)C2C3c4ccccc4C(c4ccccc43)C2C1=O)NC1CCCCCCC1 (stereo not drawn)
- Activity [1]: 212.56 pg/mL

Structure (SMILES): CC(C)(C)NC(=O)CCN1C(=O)C2C3c4ccccc4C(c4ccccc43)C2C1=O (stereo not drawn)
- Activity [1]: inactive

Structure (SMILES): O=C(CCN1C(=O)C2C3c4ccccc4C(c4ccccc43)C2C1=O)NCc1ccccc1 (stereo not drawn)
- Activity [1]: inactive
- Activity [3]: inactive

Structure (SMILES): CC(=O)Nc1ccc(-c2ccc(N3C(=O)C4C5c6ccccc6C(c6ccccc65)C4C3=O)cc2)cc1 (stereo not drawn)
- Activity [9]: 30%

Structure (SMILES): O=C(CCN1C(=O)C2C3c4ccccc4C(c4ccccc43)C2C1=O)NC1CCCCC1 (stereo not drawn)
- Activity [1]: inactive

Structure (SMILES): CC(C)CNC(=O)CCN1C(=O)C2C3c4ccccc4C(c4ccccc43)C2C1=O (stereo not drawn)
- Activity [1]: inactive

More lines, main results first:

- Activity [2]: inactive
Structure (SMILES): O=C(CCN1C(=O)C2C3c4ccccc4C(c4ccccc43)C2C1=O)NCc1ccc(Cl)c(Cl)c1 (stereo not drawn)
- Activity [1]: inactive

- Activity [4]: Active
- Activity [5]: 50%
Structure (SMILES): Cc1ccc(CNC(=O)CCN2C(=O)C3C4c5ccccc5C(c5ccccc54)C3C2=O)cc1 (stereo not drawn)
- Activity [1]: 5.76 pg/mL

- Activity [6]: 50%
Structure (SMILES): O=C(CCN1C(=O)C2C3c4ccccc4C(c4ccccc43)C2C1=O)NCc1ccc(Cl)cc1 (stereo not drawn)
- Activity [1]: 0.725 pg/mL

- Activity [7]: Active
- Activity [8]: 50%
Structure (SMILES): COc1ccc(CNC(=O)CCN2C(=O)C3C4c5ccccc5C(c5ccccc54)C3C2=O)cc1 (stereo not drawn)
- Activity [1]: 219.76 pg/mL

— ChEMBL document CHEMBL4145516, “Rational design of novel TLR4 ligands by in silico screening and their functional and structural characterization in vitro” (2018)
